US10759786B2, “1-tetrahydropyranylcarbonyl-2,3-dihydro-1H-indole compounds for treating cancer” (Eli Lilly and Company, priority 2016, dated 2020)

What was measured:
SKOV3 cells = experiment: Cell viability in SKOV3 cells (CELLTITER-GLO); format: cell-based
Description: The purpose of this assay is to evaluate the inhibition of the production of kynurenine, N-formyl-kynurenine and the depletion of tryptophan in IDO1 expressing cancer cells and assess whether compounds are overtly toxic to these cells. Exemplary compounds are tested for the inhibition of IDO1 activity in SKOV3 (ATCC, Cat # HTB-77), an ovarian cancer cell line that intrinsically expresses IDO1. Due to IDO1 expression, SKOV3 cells degrade tryptophan with the concomitant production of kynurenine and compounds are tested for their ability to inhibit the production of kynurenine, N-formyl-kynurenine and the depletion of tryptophan. Optionally, overt toxicity of compounds can be assessed by monitoring cell viability.
Plate SKOV3 cells, an IDO1-expressing ovarian cancer cell line, at 20,000 cells per well in 100 μL of McCoys 5A media (Gibco, Cat #16600-082) supplemented with non-essential amino acids (Gibco, Cat #11140-050), 1 mM sodium pyruvate (Gibco, Cat #11360-070), and 10% fetal bovine serum, complete media, in a 96 well tissue culture plate (BD Biosciences). Then, incubate cells for 16 hours in a 37° C. incubator with 5% CO2. […] Optionally, return original plate(s) to the incubator for an additional 24 hours and measure the viability of cells by adding an equal volume of CELLTITER-GLO® (Promega) and measure luminescence in an PERKIN ELMER® EnVision plate reader.

IDO1 = target: T1, IDO1 (Homo sapiens, UniProt P14902); experiment: In Vivo Target Inhibition Assay (SKOV3X tumors); details: mouse, 12 hours after dosing, SKOV3X tumor-bearing mice, read-out: inhibition of kynurenine in tumor
T1 construct: an ovarian cancer cell line that intrinsically expresses IDO1; endogenous in cells; host or cells: SKOV3 (ATCC HTB-77) in culture; SKOV3X (Indiana University Research and Technology Center) as intraperitoneal tumors in athymic nude mice
T1 sequence (P14902 whole entry): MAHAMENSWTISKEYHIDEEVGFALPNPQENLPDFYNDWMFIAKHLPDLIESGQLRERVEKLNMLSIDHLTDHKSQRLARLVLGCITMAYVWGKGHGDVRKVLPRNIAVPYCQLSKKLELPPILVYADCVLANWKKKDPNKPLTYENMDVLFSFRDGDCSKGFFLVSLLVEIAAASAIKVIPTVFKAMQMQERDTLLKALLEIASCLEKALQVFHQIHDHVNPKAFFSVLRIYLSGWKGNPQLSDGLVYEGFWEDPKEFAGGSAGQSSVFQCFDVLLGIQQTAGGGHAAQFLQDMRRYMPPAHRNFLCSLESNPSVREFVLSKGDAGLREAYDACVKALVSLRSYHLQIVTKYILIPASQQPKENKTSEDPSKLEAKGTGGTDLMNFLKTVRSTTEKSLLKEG
Text: The purpose of this assay is to evaluate the inhibition of kynurenine production and tryptophan depletion in cancer cells in vivo. SKOV3X (Indiana University Research and Technology Center), an ovarian cancer cell line, intrinsically expresses IDO1 and readily forms tumors in the peritoneal cavity of Athymic Nude-Foxn1^nu mice (Harlan). As a consequence of IDO1 expression, SKOV3X tumors locally deplete tryptophan with the concomitant production of high levels of kynurenine in the tumor microenvironment. The purpose of this assay is to measure the ability of test compounds to inhibit IDO1 evidenced by the clear reduction in kynurenine levels in the tumor.
Culture SKOV3X in McCoys 5A media (Gibco, Cat #16600-082) supplemented with non-essential amino acids (Gibco, Cat #11140-050), 1 mM sodium pyruvate (Gibco, Cat #1360-070) and 10% FBS and incubate at 37° C. in 5% CO2. Trypsinize and isolate cells from culture and resuspend cells in Hank's balanced salt solution (HBSS). Implant 2×10^6 SKOV3X cells into the intraperitoneal cavity of each Athymic Nude-Foxn1^nu mouse (Harlan). Approximately three weeks post-implantation, palpate animals to ensure tumor formation and randomize tumor-bearing mice into vehicle control and compound treatment groups. Administer compound formulated in vehicle containing 1% hydroxyethylcellulose (HEC) and 0.025% TWEEN® 80 and 0.05% Antifoam or vehicle alone by oral gavage. Generate time-course inhibition profile by dosing tumor-bearing animals with a single dose and collect plasma, liver, and tumor samples at 2, 4, 8, 12, and 24 hours post dose. Collect blood into EDTA-containing blood collection tubes (Greiner bio-one, Cat #450474) and centrifuge at 2365×g, isolate plasma, and freeze at −80° C. Isolate liver and tumor fragments, record weights and flash freeze and store at −80° C.
Prepare calibration standards for L-kynurenine and L-tryptophan by first generating stripped matrices, which are plasma and tissue homogenates depleted of L-kynurenine and L-tryptophan by dialysis. […]

Colon26 tumors = experiment: Mouse Syngeneic Colon26 Model; format: in vivo; details: for changes in tumor volume (% T/C) / reduction in body weight compared to baseline: day 20
Description: Grow the mouse BALB/c-derived Colon26 colon cancer cell line in RPMI 1640 medium supplemented with 10 mM HEPES, […] sodium pyruvate, and 10% fetal bovine serum. Harvest sub-confluent cells with trypsin and rinse twice with complete growth medium lacking serum. Initiate subcutaneous tumors by injecting 1×10^6 cells resuspended in HBSS in the rear flank of immune-competent BALB/c mice (Envigo, Indianapolis, Ind.). Six days after tumor implantation, randomize animals based on body weight and place into their respective treatment groups using the number of animals per group as indicated.
(§1) Capture tumor size and body weight using Study Director. Estimate tumor volume (V) by using the formula: V=0.536×L×W^2 where L=larger measured diameter and W=smaller of the perpendicular diameter. Transform the tumor volume data to a log scale to equalize variance across time and treatment groups. Analyze the log volume data with a two-way repeated measures analysis of variance by time and treatment using the MIXED procedures in SAS software (Version 9.2). The correlation model for the repeated measures is Spatial Power. Compare treated groups to the control group at each time point. Use the MIXED procedure also separately for each treatment group to calculate adjusted means and standard errors at each time point. Both analyses account for the autocorrelation within each animal and for the loss of data that occurs when animals with large tumors are removed from the study early. Calculate relative changes in tumor volume (% T/C) using the tumor volume measurements taken nearest to the last day of dosing with Example 1A, using the formula % T/C=100×ΔT/ΔC, where T=mean tumor volume of the compound treated group, ΔT=mean tumor volume of the compound treated group minus the mean tumor volume on the baseline day, C=mean tumor volume of the control (vehicle) group, and ΔC=mean tumor volume of the control group minus the mean tumor volume on the baseline day. If ΔT<0, then a tumor regression value is calculated instead of % T/C whereby % Regression=100×ΔT/Tinitial such that Tinital=mean tumor volume on the baseline day.
(§2) Assess antitumor efficacy of Example 1A and LY3300054 alone, or in combination by measuring tumor volume by three dimensional caliper measurements twice a week during the course of the study. Measure body weight twice weekly during the course of the study, as a general indicator of tolerability.
(§3) Formulations for Example 1A and LY3300054: Formulate Example 1A on a weekly basis in 1% HEC/0.25% Tween 80/0.05% Antifoam and store at 4° C. Solublize LY3300054 in phosphate buffered saline and store at 4° C.
Treat female BALB/c mice (n=10) bearing Colon26 tumors with Example 1A twice daily for 21 days by oral gavage at doses of 10, 50, and 100 mg/kg. Start administration of Example 1A six days after tumor implantation, and monitor tumor growth and body weight twice a week for the duration of the treatment period.

L55 tumors = experiment: L55 Humanized Tumor Model with hPBMC challenge; format: in vivo; details: for tolerability (body weight): with or without hPBMCs, over the course of the study
Text: Grow the human NSCLC cell line, L55, in RPMI 1640 medium supplemented with 10% fetal bovine serum. Harvest sub-confluent cells with trypsin and rinse twice with growth medium lacking serum. Initiate the growth of subcutaneous tumors by injecting 5×10^6 in a 1:1 mixture of HBSS and MATRIGEL® (BD Biosciences, Franklin Lakes, N.J.) in the rear flank of NOD.Cg-Prkdc^scidIl2rg^tm1Wjl/SzJ mice more commonly known as NOD scid gamma chain knockout mice (NSG) mice (The Jackson Laboratory, Bar Harbour, Me.), which lack T cells, B cells, NK cells, and are deficient in cytokine signaling. When the mean tumor volume reaches approximately 200-300 mm^3, randomize the animals by tumor size and body weight and place into their respective treatment groups as indicated. After randomization, challenge tumor-bearing mice with PBS alone (no PBMCs) or with PBS containing 1×10^7 human PBMCs into the tail vein of recipients.
as §1, §2, §3
The L55 NCLC human cancer cell line is intrinsically resistant to the allo-response associated with the injection of hPBMCs. The goal of these studies is to assess the ability of compounds to potentiate the allo response allowing human T cells to target and restrict the growth of a human L55 tumors in a mouse that lacks an adaptive immune system (NSG mice). […]

[1] = 10 mg/kg twice daily oral gavage
[2] = 50 mg/kg twice daily oral gavage
[3] = 100 mg/kg twice daily oral gavage

Row | Compound | concentration up to which cell proliferation is not inhibited (SKOV3 cells) [µM] | inhibition at 5 mg/kg (IDO1; 5 mg/kg single oral dose) [%] | inhibition at 25 mg/kg (IDO1; 25 mg/kg single oral dose) [%] | inhibition at 75 mg/kg (IDO1; 75 mg/kg single oral dose) [%] | changes in tumor volume (% T/C) (Colon26 tumors; [1]) [%] | reduction in body weight compared to baseline (Colon26 tumors; [1]) [%] | changes in tumor volume (% T/C) (Colon26 tumors; [2]) [%] | reduction in body weight compared to baseline (Colon26 tumors; [2]) [%] | changes in tumor volume (% T/C) (Colon26 tumors; [3]) [%] | reduction in body weight compared to baseline (Colon26 tumors; [3]) [%] | tolerability (body weight changes) (Colon26 tumors; 10, 50 and 100 mg/kg twice daily for 21 days, compared to vehicle-treated mice) | % T/C (L55 tumors; 75 mg/kg twice daily oral for 21 days, presence of hPBMCs, day 41, vs vehicle control lacking hPBMCs) [%] | tumor growth inhibition (L55 tumors; 75 mg/kg twice daily oral, absence of hPBMCs, compared to vehicle alone without PBMCs) | tolerability (body weight) (L55 tumors; Example 1A 75 mg/kg twice daily) | change in tumor volume (% T/C) (L55 tumors; 10 mg/kg intraperitoneal once a week for 4 weeks, hPBMCs, day 37, vs vehicle alone lacking PBMCs) [%] | tolerability (body weight) (L55 tumors; LY3300054 10 mg/kg once a week)
1 | C[C@@H](NC(=O)c1ccc(F)cc1)c1ccc2c(c1)CCN2C(=O)C1CCOCC1 (single isomer, unassigned) [Example 1A] | ≥ 10 | 37 | 59 | 79 | 17.5 | 2.5 | 31.2 | 8 | 62.6 | 2.5 | no significant tolerability issues | 47.6 | did not result in significant tumor growth inhibition | No significant tolerability issues |  | 
2 | LY3300054: an antibody that binds human PD-L1, light and heavy chains defined by SEQ ID NOs |  |  |  |  |  |  |  |  |  |  |  |  |  |  | 75.7 | No significant tolerability issues
